# What was measured:
# POAAN [1] = assay: Post-emergence action against POAAN, 1.28 kg/ha; format: in vivo, Poa annua; conditions: dosage 1280 g/ha, visual rating about 3 weeks after treatment vs untreated controls
# Outline: (§1)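 Weeds grown in sandy loam in a greenhouse were sprayed at the one-leaf stage, 2–3 weeks after sowing, with WP or EC formulations in water containing 0.5% additive at 600 L/ha. About 3 weeks later, damage was scored visually versus untreated controls (0% = like control, 100% = dead).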
# POAAN [2] = assay: Pre-emergence action against POAAN, 1280 g/ha; format: in vivo, Poa annua; conditions: visual scoring after about 3 weeks vs untreated controls, 100% = plants have died, 0% = like control plants
# Outline: (§2)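 Soil-surface application after sowing, before emergence: WP or EC formulations in water with 0.5% additive, 600 litres per hectare, onto sandy loam pots. Damage rated visually in % relative to untreated plants after roughly 3 weeks in a greenhouse.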
# KCHSC [3] = assay: Pre-emergence action against KCHSC, 1280 g/ha; format: in vivo, Bassia scoparia; conditions: scored visually after about 3 weeks vs untreated controls (100% = plants have died)
# Outline: as §2
# AMARE [4] = assay: Pre-emergence action against AMARE, 1280 g/ha; format: in vivo, Amaranthus retroflexus; conditions: scored visually after about 3 weeks vs untreated controls (100% = plants have died)
# Outline: as §2
# MATIN [5] = assay: Post-emergence action against MATIN, 1.28 kg/ha; format: in vivo, Tripleurospermum inodorum (Matricaria inodora); conditions: dosage 1280 g/ha, visual rating about 3 weeks after treatment vs untreated controls (100% = plants died)
# Outline: as §1
# KCHSC [6] = assay: Post-emergence action against KCHSC, 1.28 kg/ha; format: in vivo, Bassia scoparia; conditions: dosage 1280 g/ha, visual rating about 3 weeks after treatment vs untreated controls (100% = plants died)
# Outline: as §1
# LOLRI [7] = assay: Post-emergence action against LOLRI, 1.28 kg/ha; format: in vivo, Lolium rigidum; conditions: dosage 1280 g/ha, visual rating about 3 weeks after treatment vs untreated controls
# Outline: as §1
# MATIN [8] = assay: Pre-emergence action at 320 g/ha against MATIN; format: in vivo, Tripleurospermum inodorum (Matricaria inodora); conditions: visual scoring after about 3 weeks vs untreated controls
# Outline: (§3)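 Weed and crop seeds sown in pots and covered with soil; WP or EC formulations sprayed pre-emergence onto the soil surface at 320 g/ha with 0.5% additive in 600 l/ha water. Kept in greenhouse; after about 3 weeks activity scored visually as % versus untreated controls (100% = plants dead, 0% = as control).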
# SETVI [9] = assay: Pre-emergence action at 320 g/ha against SETVI; format: in vivo, Setaria viridis; conditions: visual scoring after about 3 weeks vs untreated controls
# Outline: as §3
# AVEFA = assay: Pre-emergence action at 320 g/ha against AVEFA; format: in vivo; conditions: visual scoring after about 3 weeks vs untreated controls
# Outline: as §3
# MATIN [10] = assay: Pre-emergence action against MATIN, 1280 g/ha; format: in vivo, Tripleurospermum inodorum (Matricaria inodora); conditions: scored visually after about 3 weeks vs untreated controls (100% = plants have died)
# Outline: as §2
# ALOMY [11] = assay: Post-emergence action against ALOMY, 320 g/ha; format: in vivo, Alopecurus myosuroides; conditions: dosage 320 g/ha, visual rating about 3 weeks after treatment vs untreated controls (100% = plants died)
# Excerpt: (§4) Accordingly, the compounds of the invention have good herbicidal action against a broad spectrum of weed grasses and broad-leaved weeds and are therefore suitable for controlling unwanted vegetation by the post-emergence method. • b) Seeds of monocotyledonous and dicotyledonous weeds and crop plants are placed in sandy loam in plastic or organic planting pots, covered with soil and cultivated in a greenhouse under controlled growth conditions. 2 to 3 weeks after sowing, the test plants are treated at the one-leaf stage. The compounds of the invention, formulated in the form of wettable powders (WP) or as emulsion concentrates (EC), are then sprayed onto the green parts of the plants as aqueous suspension or emulsion with addition of 0.5% additive at a water application rate of 600 l/ha (converted). After the test plants have been kept in the greenhouse under optimum growth conditions for about 3 weeks, the activity of the preparations is rated visually in comparison to untreated controls. For example, 100% activity=the plants have died, 0% activity=like control plants. Tables 39 to 49 below show the effects of selected compounds of the general formula (I) according to Tables 1 and 2 on various harmful plants and at an application rate corresponding to 320 g/ha, which were obtained by the experimental procedure mentioned above.
# AMARE [12] = assay: Pre-emergence action at 320 g/ha against AMARE; format: in vivo, Amaranthus retroflexus; conditions: visual scoring after about 3 weeks vs untreated controls
# Outline: as §3
# VIOTR = assay: Pre-emergence action at 320 g/ha against VIOTR; format: in vivo, Viola tricolor; conditions: dosage 320 g/ha
# Outline: as §3
# LOLRI [13] = assay: Pre-emergence action against LOLRI, 1280 g/ha; format: in vivo, Lolium rigidum; conditions: visual scoring after about 3 weeks vs untreated controls, 100% = plants have died, 0% = like control plants
# Outline: as §2
# ECHGC = assay: Pre-emergence action at 320 g/ha against ECHGC; format: in vivo, Echinochloa crus-galli; conditions: visual scoring after about 3 weeks vs untreated controls
# Excerpt: b) Seeds of monocotyledonous and dicotyledonous weed plants and crop plants are placed in plastic or organic planting pots and covered with soil. The compounds of the invention, formulated in the form of wettable powders (WP) or as emulsion concentrates (EC), are then applied onto the surface of the covering soil as aqueous suspension or emulsion with addition of 0.5% additive at a water application rate of 600 l/ha (converted). After the treatment, the pots are placed in a greenhouse and kept under good growth conditions for the trial plants. After about 3 weeks, the effect of the preparations is scored visually in comparison with untreated controls as percentages. For example, 100% activity=the plants have died, 0% activity=like control plants. Tables 13 to 26 below show the effects of selected compounds of the general formula (I) on various harmful plants and at an application rate corresponding to 320 g/ha, which were obtained by the experimental procedure mentioned above.
# STEME [14] = assay: Pre-emergence action against STEME, 1280 g/ha; format: in vivo, Stellaria media; conditions: scored visually after about 3 weeks vs untreated controls (100% = plants have died)
# Outline: as §2
# ECHCG [15] = assay: Post-emergence action against ECHCG, 1.28 kg/ha; format: in vivo, Echinochloa crus-galli; conditions: dosage 1280 g/ha, visual rating about 3 weeks after treatment vs untreated controls
# Outline: as §1
# POLCO = assay: Pre-emergence action at 320 g/ha against POLCO; format: in vivo, Fallopia convolvulus (Polygonum convolvulus); conditions: visual scoring after about 3 weeks vs untreated controls
# Outline: as §3
# VERPE [16] = assay: Pre-emergence action at 320 g/ha against VERPE; format: in vivo, Veronica persica; conditions: visual scoring after about 3 weeks vs untreated controls
# Outline: as §3
# ALOMY [17] = assay: Pre-emergence action at 320 g/ha against ALOMY; format: in vivo, Alopecurus myosuroides; conditions: scored visually after about 3 weeks vs untreated controls (100% = plants have died)
# Outline: as §3
# SETVI [18] = assay: Pre-emergence action against SETVI, 1280 g/ha; format: in vivo, Setaria viridis; conditions: visual scoring after about 3 weeks vs untreated controls, 100% = plants have died, 0% = like control plants
# Outline: as §2
# STEME [19] = assay: Post-emergence action against STEME, 1.28 kg/ha; format: in vivo, Stellaria media; conditions: dosage 1280 g/ha, visual rating about 3 weeks after treatment vs untreated controls (100% = plants died)
# Outline: as §1
# ALOMY [20] = assay: Pre-emergence action against ALOMY, 1280 g/ha; format: in vivo, Alopecurus myosuroides; conditions: visual scoring after about 3 weeks vs untreated controls, 100% = plants have died, 0% = like control plants
# Outline: as §2
# DIGSA [21] = assay: Post-emergence action against DIGSA, 1.28 kg/ha; format: in vivo, Digitaria sanguinalis; conditions: dosage 1280 g/ha, visual rating about 3 weeks after treatment vs untreated controls
# Outline: as §1
# SETVI [22] = assay: Post-emergence action at 320 g/ha against SETVI; format: in vivo, Setaria viridis; conditions: visual rating about 3 weeks after treatment vs untreated controls
# Excerpt: as §4
# ECHCG [23] = assay: Pre-emergence action against ECHCG, 1280 g/ha; format: in vivo, Echinochloa crus-galli; conditions: visual scoring after about 3 weeks vs untreated controls, 100% = plants have died, 0% = like control plants
# Outline: as §2
# VERPE [24] = assay: Pre-emergence action against VERPE, 1280 g/ha; format: in vivo, Veronica persica; conditions: scored visually after about 3 weeks vs untreated controls (100% = plants have died)
# Outline: as §2
# LOLRI [25] = assay: Pre-emergence action at 320 g/ha against LOLRI; format: in vivo, Lolium rigidum; conditions: visual scoring after about 3 weeks vs untreated controls
# Outline: as §3
# DIGSA [26] = assay: Pre-emergence action against DIGSA, 1280 g/ha; format: in vivo, Digitaria sanguinalis; conditions: visual scoring after about 3 weeks vs untreated controls, 100% = plants have died, 0% = like control plants
# Outline: as §2
# DIGSA [27] = assay: Post-emergence action at 320 g/ha against DIGSA; format: in vivo, Digitaria sanguinalis; conditions: dosage 320 g/ha, visual rating about 3 weeks after treatment vs untreated controls (100% = plants died)
# Excerpt: as §4
# DIGSA [28] = assay: Pre-emergence action at 320 g/ha against DIGSA; format: in vivo, Digitaria sanguinalis; conditions: visual scoring after about 3 weeks vs untreated controls
# Outline: as §3
structure (smiles),measurement,setting,value
CC(Oc1nn(-c2ccccc2F)c(-c2ccc(F)nc2)c1I)C(=O)O (centres unmarked) [VII-118],Post-emergence action against POAAN,POAAN [1],100%
same,Pre-emergence action against POAAN,POAAN [2],100%
same,Pre-emergence action against KCHSC,KCHSC [3],100%
same,Pre-emergence action against AMARE,AMARE [4],100%
same,Post-emergence action against MATIN,MATIN [5],90%
same,Post-emergence action against KCHSC,KCHSC [6],90%
same,Post-emergence action against LOLRI,LOLRI [7],100%
same,Pre-emergence action against MATIN in %,MATIN [8],90%
same,Pre-emergence action against SETVI in %,SETVI [9],90%
same,Pre-emergence action against AVEFA in %,AVEFA,100%
same,Pre-emergence action against MATIN,MATIN [10],100%
same,Post-emergence action against ALOMY,ALOMY [11],90%
same,Pre-emergence action against AMARE in %,AMARE [12],100%
same,Pre-emergence action against VIOTR in %,VIOTR,100%
same,Pre-emergence action against LOLRI,LOLRI [13],100%
same,Pre-emergence action against ECHGC in %,ECHGC,90%
same,Pre-emergence action against STEME,STEME [14],100%
same,Post-emergence action against ECHCG,ECHCG [15],100%
same,Pre-emergence action against POLCO in %,POLCO,100%
same,Pre-emergence action against VERPE in %,VERPE [16],90%
same,Pre-emergence action at 320 g/ha against ALOMY in %,ALOMY [17],100%
same,Pre-emergence action against SETVI,SETVI [18],100%
same,Post-emergence action against STEME,STEME [19],100%
same,Pre-emergence action against ALOMY,ALOMY [20],100%
same,Post-emergence action against DIGSA,DIGSA [21],100%
same,Post-emergence action against SETVI in %,SETVI [22],80%
same,Pre-emergence action against ECHCG,ECHCG [23],100%
same,Pre-emergence action against VERPE,VERPE [24],100%
same,Pre-emergence action against LOLRI in %,LOLRI [25],100%
same,Pre-emergence action against DIGSA,DIGSA [26],100%
same,Post-emergence action at 320 g/ha against DIGSA in %,DIGSA [27],90%
same,Pre-emergence action against DIGSA in %,DIGSA [28],100%
